Reference: patent publication US5126336A, “Antibiotic C-3 catechol-substituted cephalosporin compounds, compositions and method of use thereof” (Bristol-Myers Squibb Company, priority 1990, dated 1992)
In brackets after ≈: the same amount, converted by molar mass.

How the values were obtained:
Assay type in all cases: cell-based
S. aureus 4-1015 (MRSA) = experiment: MIC, agar dilution; conditions: Staphylococcus aureus, Mueller-Hinton agar pH 7.2, 32° C., 18 hr, 10^6 cells/ml
Method: (§1) Minimum inhibitory concentrations (MICs) of the present series of cephalosporins were determined against 32 strains of test organisms by two-fold serial agar dilution method in Mueller-Hinton agar. Geometric means of MICs were calculated against six groups of the test organisms which are classified as follows and summarized in Table 1.
(§2) Medium; MuellerHinton agar (pH = 7.2)
(§3) Incubation temperature: 32° C., 18 hr
(§4) Inoculum size; 10^6 cells/ml

K. pneumoniae PCI 602 = experiment: MIC, agar dilution; conditions: Klebsiella pneumoniae, PCI602, Mueller-Hinton agar pH 7.2, 32° C., 18 hr, 10^6 cells/ml
Method: as §1, §2, §3, §4

S. epidermidis 11-1230 = experiment: MIC, agar dilution; conditions: Staphylococcus epidermidis, 111230, Mueller-Hinton agar pH 7.2, 32° C., 18 hr, 10^6 cells/ml
Method: as §1, §2, §3, §4

P. cepacia A21213 = experiment: MIC, agar dilution; conditions: Burkholderia cepacia, Mueller-Hinton agar pH 7.2, 32° C., 18 hr, 10^6 cells/ml
Method: as §1, §2, §3, §4

S. marcescens IPM-16 = experiment: MIC, agar dilution; conditions: Serratia marcescens, IPM16, Mueller-Hinton agar pH 7.2, 32° C., 18 hr, 10^6 cells/ml
Method: as §1, §2, §3, §4

S. aureus IPM-24 (MRSA) = experiment: MIC, agar dilution; conditions: Staphylococcus aureus, Mueller-Hinton agar pH 7.2, 32° C., 18 hr, 10^6 cells/ml
Method: as §1, §2, §3, §4

E. faecium A24817 = experiment: MIC, agar dilution; conditions: Enterococcus faecium, Mueller-Hinton agar pH 7.2, 32° C., 18 hr, 10^6 cells/ml
Method: as §1, §2, §3, §4

X. maltophilia GN 12873 = experiment: MIC, agar dilution; conditions: Stenotrophomonas maltophilia, GN12873, Mueller-Hinton agar pH 7.2, 32° C., 18 hr, 10^6 cells/ml
Method: as §1, §2, §3, §4

X. maltophilia No. 661 = experiment: MIC, agar dilution; conditions: Stenotrophomonas maltophilia, Mueller-Hinton agar pH 7.2, 32° C., 18 hr, 10^6 cells/ml
Method: as §1, §2, §3, §4

P. aeruginosa IPM-8 = experiment: MIC, agar dilution; conditions: Pseudomonas aeruginosa, IPM8, Mueller-Hinton agar pH 7.2, 32° C., 18 hr, 10^6 cells/ml
Method: as §1, §2, §3, §4

M. luteus 1001 = experiment: MIC, agar dilution; conditions: Micrococcus luteus, Mueller-Hinton agar pH 7.2, 32° C., 18 hr, 10^6 cells/ml
Method: as §1, §2, §3, §4

M. morgani 1510/9 = experiment: MIC, agar dilution; conditions: Mueller-Hinton agar pH 7.2, 32° C., 18 hr, 10^6 cells/ml
Method: as §1, §2, §3, §4

C. freundii GN 7391 = experiment: MIC, agar dilution; conditions: Citrobacter freundii, GN7391, Mueller-Hinton agar pH 7.2, 32° C., 18 hr, 10^6 cells/ml
Method: as §1, §2, §3, §4

E. coli 255 = experiment: MIC, agar dilution; conditions: Escherichia coli, Mueller-Hinton agar pH 7.2, 32° C., 18 hr, 10^6 cells/ml
Method: as §1, §2, §3, §4

E. cloacae IPM-12 = experiment: MIC, agar dilution; conditions: Enterobacter cloacae, IPM12, Mueller-Hinton agar pH 7.2, 32° C., 18 hr, 10^6 cells/ml
Method: as §1, §2, §3, §4

B. subtilis PCI 219 = experiment: MIC, agar dilution; conditions: Bacillus subtilis, PCI219, Mueller-Hinton agar pH 7.2, 32° C., 18 hr, 10^6 cells/ml
Method: as §1, §2, §3, §4

P. cepacia No. 651 = experiment: MIC, agar dilution; conditions: Burkholderia cepacia, Mueller-Hinton agar pH 7.2, 32° C., 18 hr, 10^6 cells/ml
Method: as §1, §2, §3, §4

P. aeruginosa IPM-9 = experiment: MIC, agar dilution; conditions: Pseudomonas aeruginosa, IPM9, Mueller-Hinton agar pH 7.2, 32° C., 18 hr, 10^6 cells/ml
Method: as §1, §2, §3, §4

P. mirabilis IFO-2849 = experiment: MIC, agar dilution; conditions: Proteus mirabilis, IFO2849, Mueller-Hinton agar pH 7.2, 32° C., 18 hr, 10^6 cells/ml
Method: as §1, §2, §3, §4

M. morgani 1510 = experiment: MIC, agar dilution; conditions: Mueller-Hinton agar pH 7.2, 32° C., 18 hr, 10^6 cells/ml
Method: as §1, §2, §3, §4

P. rettgeri IPM-14 = experiment: MIC, agar dilution; conditions: Providencia rettgeri, IPM14, Mueller-Hinton agar pH 7.2, 32° C., 18 hr, 10^6 cells/ml
Method: as §1, §2, §3, §4

S. marcescens IPM-15 = experiment: MIC, agar dilution; conditions: Serratia marcescens, IPM15, Mueller-Hinton agar pH 7.2, 32° C., 18 hr, 10^6 cells/ml
Method: as §1, §2, §3, §4

C. terrigena IFO 12685 = experiment: MIC, agar dilution; conditions: Mueller-Hinton agar pH 7.2, 32° C., 18 hr, 10^6 cells/ml
Method: as §1, §2, §3, §4

E. faecalis A9808 = experiment: MIC, agar dilution; conditions: Enterococcus faecalis, Mueller-Hinton agar pH 7.2, 32° C., 18 hr, 10^6 cells/ml
Method: as §1, §2, §3, §4

P. vulgaris IPM-13 = experiment: MIC, agar dilution; conditions: Proteus vulgaris, IPM13, Mueller-Hinton agar pH 7.2, 32° C., 18 hr, 10^6 cells/ml
Method: as §1, §2, §3, §4

P. aeruginosa KKA 19 = experiment: MIC, agar dilution; conditions: Pseudomonas aeruginosa, KKA19, Mueller-Hinton agar pH 7.2, 32° C., 18 hr, 10^6 cells/ml
Method: as §1, §2, §3, §4

S. aureus 209P = experiment: MIC, agar dilution; conditions: Staphylococcus aureus; S. aureus 209P; Mueller-Hinton agar pH 7.2; 32° C., 18 hr; 10^6 cells/ml; read-out: MIC
Method: as §1, §2, §3, §4

P. aeruginosa A20599 = experiment: MIC, agar dilution; conditions: Pseudomonas aeruginosa, Mueller-Hinton agar pH 7.2, 32° C., 18 hr, 10^6 cells/ml
Method: as §1, §2, §3, §4

P. aeruginosa A9843A = experiment: MIC, agar dilution; conditions: Pseudomonas aeruginosa, A9843A, 18 h, pH 7.2
Method: as §1
(§5) In vivo antibacterial activity was determined against three bacterial infections (S. aureus Smith, E. coli Juhl and P. aeruginosa A9843A) by intramuscular administration to mice just after the bacterial challenge. PD50 values are summarized in Table 3 in comparsion with the MIC values against the corresponding organisms.
as §2, §3, §4

E. coli Juhl A15119 = experiment: MIC, agar dilution; conditions: Escherichia coli, JUHLA15119; E. coli Juhl A15119; Mueller-Hinton agar pH 7.2; 32° C., 18 hr; 10^6 cells/ml; read-out: MIC
Method: as §1, §5, §2, §3, §4

S. aureus Smith = experiment: MIC, agar dilution; conditions: Staphylococcus aureus; S. aureus Smith; Mueller-Hinton agar pH 7.2; 32° C., 18 hr; 10^6 cells/ml; read-out: MIC
Method: as §1, §5, §2, §3, §4

[1] = system: Gp-Ib: Penicillin(PC)-resistant S. aureus (5); experiment: MIC, two-fold serial agar dilution, Gp-Ib; conditions: Staphylococcus aureus, 5 strains, Mueller-Hinton agar, read-out: Geometric mean of MIC
Method: as §1
Gp-Ib Penicillin(PC)-resistant S. aureus (5).

[2] = system: Gn-Ia: Cephalothin(CET)-sensitive E. coli (2), Kl. pneumoniae (1) and Pr. mirabilis (2); experiment: MIC, two-fold serial agar dilution, Gn-Ia; conditions: 5 strains, Mueller-Hinton agar, read-out: Geometric mean of MIC
Method: as §1
Gn-Ia Cephalothin(CET)-sensitive E. coli (2), Kl.
pneumoniae (1) and Pr. mirabilis (2).

[3] = system: Gn-Ib: Cephalothin(CET)-resistant E. coli (3) and Kl. pneumoniae (2); experiment: MIC, two-fold serial agar dilution, Gn-Ib; conditions: Escherichia coli, read-out: Geometric mean of MIC, Gn-Ib, 5 strains; Mueller-Hinton agar
Method: as §1
Gn-Ib Cephalothin(CET)-resistant E. coli (3) and Kl.

[4] = system: Gn-II: M.morganii (1), Ent. cloacae (2) and Ser. marcescens (2); experiment: MIC, two-fold serial agar dilution, Gn-II; conditions: Gn-II, 5 strains; Mueller-Hinton agar; read-out: Geometric mean of MIC
Method: as §1
Gn-II M.morganii (1), Ent. cloacae (2) and Ser.

[5] = system: Gn-III: Ps. aeruginosa (7); experiment: MIC, two-fold serial agar dilution, Gn-III; conditions: Pseudomonas aeruginosa, Gn-III, 7 strains; Mueller-Hinton agar; read-out: Geometric mean of MIC
Method: as §1
Gn-III Ps. aeruginosa (7).

[6] = system: Gp-Ia: Penicillin(PC)-sensitive S. aureus (5 strains); experiment: MIC, two-fold serial agar dilution, Gp-Ia; conditions: Staphylococcus aureus, Mueller-Hinton agar, read-out: Geometric mean of MIC
Method: as §1
Gp-Ia Penicillin(PC)-sensitive S. aureus (5 strains).

Nc1nc(/C(=N/O)C(=O)NC2C(=O)N3C(C(=O)[O-])=C(/C=C/C[n+]4cc5cc(O)c(O)cc5cn4)CS[C@H]23)cs1 (stereo partly shown) [Ik, 7-[(Z)-2-(2-Aminothiazol-4-yl)-2-hydroxyimino-acetamido]-3-[(E)-3-(6,7-dihydroxyphthalazin-2-io)-1-propen--1-yl]-3-cephem-4-carboxylate]
MIC (S. aureus 4-1015 (MRSA)): 3.1 µg/mL (≈ 5.44 µM)
MIC (K. pneumoniae PCI 602): 0.05 µg/mL (≈ 0.0878 µM)
MIC (S. epidermidis 11-1230): 1.6 µg/mL (≈ 2.81 µM)
MIC (P. cepacia A21213): > 100 µg/mL
MIC (S. marcescens IPM-16): > 100 µg/mL
MIC (S. aureus IPM-24 (MRSA)): 12.5 µg/mL (≈ 21.9 µM)
MIC (E. faecium A24817): 50 µg/mL (≈ 87.8 µM)
MIC (X. maltophilia GN 12873): > 100 µg/mL
MIC (X. maltophilia No. 661): > 100 µg/mL
MIC (P. aeruginosa IPM-8): > 100 µg/mL
MIC (M. luteus 1001): 0.4 µg/mL (≈ 0.702 µM)
MIC (M. morgani 1510/9): 0.1 µg/mL (≈ 0.176 µM)
MIC (C. freundii GN 7391): > 100 µg/mL
MIC (E. coli 255): 0.2 µg/mL (≈ 0.351 µM)
MIC (E. cloacae IPM-12): > 100 µg/mL
MIC (B. subtilis PCI 219): 0.4 µg/mL (≈ 0.702 µM)
MIC (P. cepacia No. 651): 100 µg/mL (≈ 176 µM)
MIC (P. aeruginosa IPM-9): > 100 µg/mL
MIC (P. mirabilis IFO-2849): 0.2 µg/mL (≈ 0.351 µM)
MIC (M. morgani 1510): 6.3 µg/mL (≈ 11.1 µM)
MIC (P. rettgeri IPM-14): 1.6 µg/mL (≈ 2.81 µM)
MIC (S. marcescens IPM-15): > 100 µg/mL
MIC (C. terrigena IFO 12685): 0.8 µg/mL (≈ 1.4 µM)
MIC (E. faecalis A9808): 6.3 µg/mL (≈ 11.1 µM)
MIC (P. vulgaris IPM-13): > 100 µg/mL
MIC (P. aeruginosa KKA 19): > 100 µg/mL
MIC (S. aureus 209P): 0.8 µg/mL (≈ 1.4 µM)
MIC (P. aeruginosa A20599): > 100 µg/mL
MIC (P. aeruginosa A9843A): > 100 µg/mL
MIC (E. coli Juhl A15119): 0.4 µg/mL (≈ 0.702 µM)
MIC (S. aureus Smith): 0.8 µg/mL (≈ 1.4 µM)

CC(C)(O/N=C(\C(=O)NC1C(=O)N2C(C(=O)[O-])=C(/C=C/C[N+](C)(C)CCc3ccc(O)c(O)c3)CS[C@H]12)c1csc(N)n1)C(=O)O (stereo partly shown) [Iq, 7-[(Z)-2-(2-Aminothiazol-4-yl)-2-(1-carboxy-1-methylethoxy-imino)acetamido]-3-[(E)-3-(3,4-dihydroxyphenethyldimethyl-ammonio)-1-propen-1-yl]-3-cephem-4-carboxylate]
MIC [1]: 25 µg/mL (≈ 37.1 µM)
MIC [2]: 0.17 µg/mL (≈ 0.252 µM)
MIC [3]: 0.13 µg/mL (≈ 0.193 µM)
MIC [4]: 0.8 µg/mL (≈ 1.19 µM)
MIC [5]: 0.59 µg/mL (≈ 0.874 µM)
MIC [6]: 13 µg/mL (≈ 19.3 µM)
